In US20240150365A1 (Hotspot Therapeutics, Inc., priority 2022, published 2024):

How the values were obtained:
NF-kB = NF-kB reporter assay in Jurkat cells stimulated with aCD3/aCD28/PMA; format: cell-based; settings: Homo sapiens, Jurkat, Jurkat cells, 1 hr compound incubation, aCD3/aCD28/PMA stimulation 4 hr, One-Glo readout; read-out: NF-kB Reporter Assay IC50
Experimental: Jurkat cells were maintained in complete RPMI 1640 media supplemented with 10% FBS. Prior to the assay, 120 nL of the serial diluted compound was added in each well of 384-well flat bottom white plate (Corning #3570) by using liquid handler Echo550. Jurkat cells were harvested by centrifugation at 120 g for 10 min and resuspended in fresh RPMI 1640 media without serum. 30 μL of cells (25,000 cells) were seeded in each well of 384-well plate containing compound. After 1 hr incubation at 37° C. in a 5% CO2 incubator, 10 μL of diluted aCD3/aCD28/PMA (final concentration at 5 μg/mL, 5 μg/mL and 0.03 μg/mL, respectively) in RPMI 1640 without serum were added to each well. After incubation at 37° C. in 5% CO2 for 4 hr, 30 μL of One-Glo reagent (Promega #E6120) was added into each well. The plate was left at room temperature for 5 min and the signal was measured on EnVision (PerkinElmer).
Compounds in which an IC50 was not measured are designated as “N/A”.

MALT1 = target: T1, MALT1 (Homo sapiens, UniProt Q9UDY8); experiment: MALT-1 Fluorogenic Peptide Cleavage Assay (MALT1 inhibition assay); format: biochemical; settings: Avi-tagged FL MALT-1, Ac-LRSR-AMC peptide substrate, 30 min pre-incubation, 90 min reaction
T1 construct: Avi-tagged FL MALT-1 (Pharmaron, stored at −70° C.); Avi tag
T1 sequence (Q9UDY8 1-824): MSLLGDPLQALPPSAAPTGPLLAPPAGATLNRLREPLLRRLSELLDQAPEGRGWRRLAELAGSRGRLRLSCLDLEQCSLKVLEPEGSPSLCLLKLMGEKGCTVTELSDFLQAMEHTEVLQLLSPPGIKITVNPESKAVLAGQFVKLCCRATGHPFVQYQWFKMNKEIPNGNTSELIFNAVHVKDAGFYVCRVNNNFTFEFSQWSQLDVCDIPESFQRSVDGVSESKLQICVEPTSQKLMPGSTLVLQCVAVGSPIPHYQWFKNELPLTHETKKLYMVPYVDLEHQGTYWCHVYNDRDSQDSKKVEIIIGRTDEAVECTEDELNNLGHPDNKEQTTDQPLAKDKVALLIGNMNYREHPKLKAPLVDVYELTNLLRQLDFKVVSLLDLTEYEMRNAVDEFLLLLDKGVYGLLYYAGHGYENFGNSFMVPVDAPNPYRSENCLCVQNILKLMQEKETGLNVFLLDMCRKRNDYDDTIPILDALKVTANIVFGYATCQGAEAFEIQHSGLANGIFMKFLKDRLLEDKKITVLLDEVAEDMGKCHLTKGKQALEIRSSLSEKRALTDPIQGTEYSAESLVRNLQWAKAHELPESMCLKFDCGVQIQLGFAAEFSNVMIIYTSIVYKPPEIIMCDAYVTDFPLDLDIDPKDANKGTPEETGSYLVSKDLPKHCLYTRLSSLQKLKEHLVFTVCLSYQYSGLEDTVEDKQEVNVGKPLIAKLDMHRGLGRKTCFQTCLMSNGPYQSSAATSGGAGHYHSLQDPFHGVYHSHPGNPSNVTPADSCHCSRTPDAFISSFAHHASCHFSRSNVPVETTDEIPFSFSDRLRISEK
Experimental: Inhibition of MALT1 activity by the presence of small molecules was evaluated using MALT-1 Fluorogenic Peptide Cleavage Assay. The assay utilizes a quenched AMC-labelled peptide that contains the MALT-1 recognition sequence and cleavage site (LRSR). MALT-1 mediated cleavage of the peptide relieves the quenching and leads to an increase in fluorescence at excitation (342 nm) and emission (441 nm). The following reagents were obtained commercially and used to prepare standard reagent formulations as further described below: […] The standard reagent formulations used in this assay were prepared and stored as follows. A 1.1 M solution of sodium citrate (161.3 g, 500 mL) was prepared and stored at room temperature. A 10% (w/v) CHAPS solution (2.0 g, 20 mL) was prepared and stored at 4° C. A 500 mM HEPES solution having pH of 6.89 was prepared from 200 mL of a 1 M HEPES solution having a pH of 7.5 using concentrated hydrochloric acid and brought to a final volume of 400 mL with […]® H2O. The substrate, 10 mM Ac-LRSR-AMC Peptide, was prepared (10 mg, 1.370 mL DMSO) and stored at -20° C. Compounds were plated to provide a 2% DMSO final concentration using a ProxiPlate-384 Plus F Black 384-shallow well microplate. The assay-ready plates were equilibrated to room temperature. […] DMSO was added only when compound plates had not been DMSO-backfilled to 2%. MALT-1 was thawed and kept on ice. Peptide substrate was thawed on the bench under ambient conditions. A MALT-1 enzyme working stock was prepared from Avi-tagged FL MALT-1 (40 nM in a prepared reagent volume of 16.5 μL) and the reaction buffer (13.0 mL). MALT1 working stock (5 μL) was added to each well of the microplate. MALT-1 was pre-incubated with compounds for 30 minutes at room temperature. […] The plates were covered and incubated on the bench at room temperature for 90 minutes. Fluorescence intensity was determined using a CLARIOstar microplate reader (BMG LABTECH) using the optimised AMC mode. Before taking readings, a 70% gain was applied on the neutral control well. Compound data were normalised to % Inhibition and used to plot sigmoidal concentration response curves to yield various parameters including IC50. […] Compounds in which an IC50 was not measured are designated as “N/A”.

| IC50 (NF-kB) [nM] | IC50 (MALT1) [nM] | Structure (SMILES) |
| --- | --- | --- |
| < 400 | < 400 | CCc1ccc2cnn(C)c2c1NS(=O)(=O)c1ccc(-n2cc(C(F)(F)F)cn2)nc1 [Example I-2] |
|  | < 400 | CCc1ccc2cnn(C)c2c1NS(=O)(=O)c1ccc(-n2cc(C(F)(F)F)c(C(=O)N3CC(O)C3)n2)nc1 [Example I-5] |
| < 400 | < 400 | CCc1ccc2cnn(C)c2c1N(C)S(=O)(=O)c1ccc(-n2cc(C(F)(F)F)cn2)nc1 [Example I-6] |
| < 400 | < 400 | COc1ccc2cnn(C)c2c1NS(=O)(=O)c1ccc(-n2cc(C(F)(F)F)cn2)nc1 [Example I-10, N-(6-Methoxy-1-Methylindazol-7-yl)-6-[4-(Trifluoromethyl) Pyrazol-1-yl]pyridine-3-Sulfonamide] |
| < 400 | < 400 | COc1ccc2cnn(C)c2c1NS(=O)(=O)c1ccc(-n2cc(C3CC3)cn2)nc1 [Example I-11, 6-(4-Cyclopropyl-1H-Pyrazol-1-yl)-N-(6-Methoxy-1-Methyl-1H-Indazol-7-yl)Pyridine-3-Sulfonamide] |
| < 400 | < 400 | COc1ccc2cnn(C)c2c1NS(=O)(=O)c1ccc(-n2cc(Cl)cn2)nc1 [Example I-13, 6-(4-Chloro-1H-Pyrazol-1-yl)-N-(6-Methoxy-1-Methyl-1H-Indazol-7-yl)Pyridine-3-Sulfonamide] |
| < 400 | < 400 | COc1ccc2cnn(C)c2c1NS(=O)(=O)c1ccc(-n2cc(C)cn2)nc1 [Example I-14, N-(6-Methoxy-1-Methyl-1H-Indazol-7-yl)-6-(4-Methyl-1H-Pyrazol-1-yl)Pyridine-3-Sulfonamide] |
| < 400 | 1000 to 2500 | COc1ccc2cnn(C)c2c1NS(=O)(=O)c1ccc(-n2cccn2)nc1 [Example I-15, N-(6-Methoxy-1-Methyl-1H-Indazol-7-yl)-6-(1H-Pyrazol-1-yl) Pyridine-3-Sulfonamide] |
| < 400 | < 400 | COc1ccc2cnn(C)c2c1NS(=O)(=O)c1ccc(-n2ccc(C(F)(F)F)n2)nc1 [Example I-16] |
| < 400 | < 400 | Cn1ncc2ccc(C3CC3)c(NS(=O)(=O)c3ccc(-n4cc(Cl)cn4)nc3)c21 [Example I-17] |
| < 400 | > 2500 | COc1ccc2cnn(C)c2c1NS(=O)(=O)c1ccc(-c2ccn(C)n2)nc1 [Example I-19, N-(6-Methoxy-1-Methylindazol-7-yl)-6-(1-Methylpyrazol-3-yl)Pyridine-3-Sulfonamide] |
| 400 to 1000 | 1000 to 2500 | COc1ccc2cnn(C)c2c1NS(=O)(=O)c1ccc(-c2cnn(C)c2)nc1 [Example I-20, N-(6-Methoxy-1-Methylindazol-7-yl)-6-(1-Methylpyrazol-4-yl)Pyridine-3-Sulfonamide] |
| < 400 | > 2500 | COc1ccc2cnn(C)c2c1NS(=O)(=O)c1ccc(-c2cn(C)nn2)nc1 [Example I-21, N-(6-Methoxy-1-Methyl-1H-Indazol-7-yl)-6-(1-Methyl-1H-1,2,3-Triazol-4-yl)Pyridine-3-Sulfonamide] |
| < 400 | 400 to 1000 | Cn1ncc2cccc(NS(=O)(=O)c3ccc(-n4cc(C(F)(F)F)cn4)nc3)c21 [Example I-23, N-(1-Methyl-1H-Indazol-7-yl)-6-(4-(Trifluoromethyl)-1H-Pyrazol-1-yl)Pyridine-3-Sulfonamide] |
|  | 1000 to 2500 | CCc1ccc2cnn(C)c2c1NS(=O)(=O)c1ccc(-c2ccncc2)nc1 [Example I-47, N-(6-Ethyl-1-Methyl-1H-Indazol-7-yl)-[2,4′-Bipyridine]-5-Sulfonamide] |

Further lines, the compound ahead of its results:

| Structure (SMILES) | IC50 (NF-kB) [nM] | IC50 (MALT1) [nM] |
| --- | --- | --- |
| CCc1ccc2cnn(C)c2c1NS(=O)(=O)c1ccc(-c2cc(C(F)(F)F)n[nH]2)nc1 [Example I-1] | < 400 | < 400 |
| CCc1ccc2cnn(C)c2c1NS(=O)(=O)c1ccc(-n2cc(C(F)(F)F)c(C(=O)N(C)C)n2)nc1 [Example I-4] |  | 400 to 1000 |
| CCc1ccc2cnn(C)c2c1NS(=O)(=O)c1ccc(-n2cc(C(F)(F)F)cn2)cn1 [Example I-7, N-(6-Ethyl-1-Methyl-1H-Indazol-7-yl)-5-(4-(Trifluoromethyl)-1H-Pyrazol-1-yl)Pyridine-2-Sulfonamide] | 1000 to 2500 | 1000 to 2500 |
| CCc1ccc2cnn(C)c2c1NS(=O)(=O)c1cnc(-n2cc(C(F)(F)F)cn2)nc1 [Example I-8, N-(6-Ethyl-1-Methyl-1H-Indazol-7-yl)-2-(4-(Trifluoromethyl)-1H-Pyrazol-1-yl)Pyrimidine-5-Sulfonamide] | > 2500 | > 2500 |
| CCc1ccc2cnn(C)c2c1NS(=O)(=O)c1ccc(-n2cc(C(F)(F)F)cn2)nn1 [Example I-9, N-(6-Ethyl-1-Methyl-1H-Indazol-7-yl)-6-(4-(Trifluoromethyl)-1H-Pyrazol-1-yl)Pyridazine-3-Sulfonamide] | > 2500 | > 2500 |
| COc1ccc2cnn(C)c2c1NS(=O)(=O)c1ccc(-c2cc(C(F)(F)F)nn2C)nc1 [Example I-18, N-(6-Methoxy-1-Methylindazol-7-yl)-6-[2-Methyl-5-(Trifluoromethyl)Pyrazol-3-yl]pyridine-3-Sulfonamide] | < 400 | < 400 |
| COc1ccc2cnn(C)c2c1NS(=O)(=O)c1ccc(-c2cc(C(F)(F)F)n[nH]2)nc1 [Example I-22, N-(6-Methoxy-1-Methylindazol-7-yl)-6-[5-(Trifluoromethyl)-2H-Pyrazol-3-yl]pyridine-3-Sulfonamide] | < 400 | < 400 |
| Cc1n[nH]c2cccc(NS(=O)(=O)c3ccc(-n4cc(C(F)(F)F)cn4)nc3)c12 [Example I-24, N-(3-Methyl-1H-Indazol-4-yl)-6-(4-(Trifluoromethyl)-1H-Pyrazol-1-yl)Pyridine-3-Sulfonamide] | < 400 | 1000 to 2500 |
| CCc1ccc2cnn(C)c2c1NS(=O)(=O)c1ccc(-c2ccc(C(=O)OC)c(Cl)c2)nc1 [Example I-45, Methyl 2-Chloro-4-(5-(N-(6-Ethyl-1-Methyl-1H-Indazol-7-yl)Sulfamoyl)Pyridin-2-yl)Benzoate] |  | < 400 |
| CCc1ccc2cnn(C)c2c1NS(=O)(=O)c1ccc(-c2ccnc(C(F)(F)F)c2)nc1 [Example I-46, N-(6-Ethyl-1-Methyl-1H-Indazol-7-yl)-2′-(Trifluoromethyl)-[2,4′-Bipyridine]-5-Sulfonamide] |  | < 400 |
